From patent US9113629B2, “4-amino-6-(4-substituted-phenyl)-picolinates and 6-amino-2-(4-substituted-phenyl)-pyrimidine-4-carboxylates and their use as herbicides” (DOW AGROSCIENCES LLC, priority 2013, dated 2015)
Where two headings read alike, the source gives them in different places.

How the values were obtained:
[1] = tested on: Key Grass and Sedge Weeds as well as Grass Crops; assay: Post-emergent Test II herbicidal activity (Table 6); assay type: in vivo; conditions: post-emergence, 336 h; for pest or weed control at 70 g/ha: application rate 70 g ai/ha; for pest or weed control at 140 g/ha: application rate 140 g ai/ha
Method in brief: (§1)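 Scoring: visual, 0–100% injury at 14 d versus untreated. Treatment: overhead track spray, 187 L/ha, onto plants at the first–second true leaf stage. Growth: greenhouse, ~15 h light, 23–29 °C day, 22–28 °C night.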

[2] = tested on: Key Broadleaf Weed and Crop Species; assay: Post-emergent Test II herbicidal activity (Table 5); assay type: in vivo; conditions: post-emergence, 336 h, post-emergent, 14 days after application; for pest or weed control at 70 g/ha: 70 g ai/ha; for pest or weed control at 140 g/ha: 140 g ai/ha
Method in brief: as §1

[3] = Triticum aestivum, TRZSS (wheat), read-out: Visual Growth Reduction (%) 14 Days After Application, TRZSS
[4] = CYPES: yellow nutsedge (Cyperus esculentus), read-out: Visual Growth Reduction (%) 14 Days After Application, CYPES
[5] = DIGSA: crabgrass (Digitaria sanguinalis), read-out: Visual Growth Reduction (%) 14 Days After Application, DIGSA
[6] = ECHCG: barnyardgrass (Echinochloa crus-galli), read-out: Visual Growth Reduction (%) 14 Days After Application, ECHCG
[7] = ORYSA: rice (Oryza sativa), read-out: Visual Growth Reduction (%) 14 Days After Application, ORYSA
[8] = SETFA: giant foxtail (Setaria faberi), read-out: Visual Growth Reduction (%) 14 Days After Application, SETFA
[9] = SORVU: grain sorghum (Sorghum vulgare), read-out: Visual Growth Reduction (%) 14 Days After Application, SORVU
[10] = ZEAMX: maize, corn (Zea mays), read-out: Visual Growth Reduction (%) 14 Days After Application, ZEAMX
[11] = ABUTH: velvetleaf (Abutilon theophrasti), read-out: Visual Growth Reduction (%) 14 Days After Application ABUTH
[12] = AMARE: redroot pigweed (Amaranthus retroflexus), read-out: Visual Growth Reduction (%) 14 Days After Application AMARE
[13] = BRSNN: oilseed-rape, canola (Brassica napus), read-out: Visual Growth Reduction (%) 14 Days After Application BRSNN
[14] = CHEAL: lambsquarters (Chenopodium album), read-out: Visual Growth Reduction (%) 14 Days After Application CHEAL
[15] = EPHHL: wild poinsettia (Euphorbia heterophylla), read-out: Visual Growth Reduction (%) 14 Days After Application EPHHL
[16] = HELAN: sunflower (Helianthus annuus), read-out: Visual Growth Reduction (%) 14 Days After Application HELAN
[17] = VIOTR: wild pansy (Viola tricolor), read-out: Visual Growth Reduction (%) 14 Days After Application VIOTR

Row | SMILES | pest or weed control at 70 g/ha [1, 3] | pest or weed control at 140 g/ha [1, 3] | pest or weed control at 70 g/ha [1, 4] | pest or weed control at 140 g/ha [1, 4] | pest or weed control at 70 g/ha [1, 5] | pest or weed control at 140 g/ha [1, 5] | pest or weed control at 70 g/ha [1, 6] | pest or weed control at 140 g/ha [1, 6] | pest or weed control at 70 g/ha [1, 7] | pest or weed control at 140 g/ha [1, 7] | pest or weed control at 70 g/ha [1, 8] | pest or weed control at 140 g/ha [1, 8] | pest or weed control at 70 g/ha [1, 9] | pest or weed control at 140 g/ha [1, 9] | pest or weed control at 70 g/ha [1, 10] | pest or weed control at 140 g/ha [1, 10] | pest or weed control at 70 g/ha [2, 11] | pest or weed control at 140 g/ha [2, 11] | pest or weed control at 70 g/ha [2, 12] | pest or weed control at 140 g/ha [2, 12] | other results
1 | COc1c(N)nc(-c2cc(F)c(Br)cc2F)nc1C(=O)O [Compound 11] | 45 to 59% | 60 to 74% | 45 to 59% | 45 to 59% | 60 to 74% | 60 to 74% | 85 to 94% | 85 to 94% | 0 to 29% | 0 to 29% | 60 to 74% | 60 to 74% | 60 to 74% | 75 to 84% | 60 to 74% | 60 to 74% | 95 to 100% | 95 to 100% | 95 to 100% | 95 to 100% | pest or weed control at 70 g/ha [2, 13]: 95 to 100%; pest or weed control at 140 g/ha [2, 13]: 95 to 100%; pest or weed control at 70 g/ha [2, 14]: 95 to 100%; pest or weed control at 140 g/ha [2, 14]: 95 to 100%; pest or weed control at 70 g/ha [2, 15]: 95 to 100%; pest or weed control at 140 g/ha [2, 15]: 95 to 100%; pest or weed control at 70 g/ha [2, 16]: 95 to 100%; pest or weed control at 140 g/ha [2, 16]: 95 to 100%; pest or weed control at 70 g/ha [2, 17]: 0 to 29%; pest or weed control at 140 g/ha [2, 17]: 45 to 59%
2 | C=Cc1c(C(=O)OC)nc(-c2ccc(C(F)(F)F)c(F)c2)c(F)c1N [Compound 12] | 0 to 29% | 0 to 29% | 30 to 44% | 45 to 59% | 0 to 29% | 0 to 29% | 0 to 29% | 0 to 29% | 0 to 29% | 0 to 29% | 0 to 29% | 0 to 29% | 0 to 29% | 0 to 29% | 0 to 29% | 0 to 29% | 75 to 84% | 85 to 94% | 0 to 29% | 45 to 59% | pest or weed control at 70 g/ha [2, 13]: 0 to 29%; pest or weed control at 140 g/ha [2, 13]: 0 to 29%; pest or weed control at 70 g/ha [2, 14]: 0 to 29%; pest or weed control at 140 g/ha [2, 14]: 0 to 29%; pest or weed control at 70 g/ha [2, 15]: 45 to 59%; pest or weed control at 140 g/ha [2, 15]: 95 to 100%; pest or weed control at 70 g/ha [2, 16]: 0 to 29%; pest or weed control at 140 g/ha [2, 16]: 0 to 29%; pest or weed control at 70 g/ha [2, 17]: 0 to 29%; pest or weed control at 140 g/ha [2, 17]: 0 to 29%
3 | COC(=O)c1nc(-c2ccc(I)c(F)c2)c(Cl)c(N)c1Cl [Compound 13, Methyl 4-amino-3,5-dichloro-6-(3-fluoro-4-iodophenyl)picolinate] | 45 to 59% | 60 to 74% | 75 to 84% | 75 to 84% | 60 to 74% | 75 to 84% | 60 to 74% | 75 to 84% | 0 to 29% | 0 to 29% | 45 to 59% | 75 to 84% | 85 to 94% | 85 to 94% | 60 to 74% | 60 to 74% | 85 to 94% | 95 to 100% | 85 to 94% | 95 to 100% | pest or weed control at 70 g/ha [2, 13]: 85 to 94%; pest or weed control at 140 g/ha [2, 13]: 85 to 94%; pest or weed control at 70 g/ha [2, 14]: 95 to 100%; pest or weed control at 140 g/ha [2, 14]: 95 to 100%; pest or weed control at 70 g/ha [2, 15]: 0 to 29%; pest or weed control at 140 g/ha [2, 15]: 30 to 44%; pest or weed control at 70 g/ha [2, 16]: 95 to 100%; pest or weed control at 140 g/ha [2, 16]: 95 to 100%; pest or weed control at 70 g/ha [2, 17]: 0 to 29%; pest or weed control at 140 g/ha [2, 17]: 0 to 29%
